Test results reported in patent US8933039B2 (NPS Pharmaceuticals, Inc., priority 1995, dated 2015).
Non-standard residues stand in square brackets, D forms with d. Residues, ends and D or L forms follow the SMILES beside them. *: point of attachment. Desaminotyrosyl = O=C(CCc1ccc(O)cc1)*; Pen = CC(C)(S)[C@H](N)C(=O)O; Tle = CC(C)(C)[C@H](N)C(=O)O; Abu = CC[C@H](N)C(=O)O

Tests used:
CD1 mice = experiment: Intestinotrophic activity assessment: small bowel weight in mice; format: in vivo; settings: for % Activity (small bowel inducing activity relative to native rat GLP-2(1-33) = 100%): mice, as Example 4; for % Increase in small bowel weight: CD1 mice, 2.5 μg peptide s.c. b.i.d. in PBS, sacrificed 10 or 14 days, relative to vehicle only
In short: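 Female CD1 mice, 6 weeks old (n=3-4/group), given 2.5 μg peptide s.c. b.i.d. in PBS; sacrificed 10 or 14 days later after ≥20 h fast. Small bowel (pylorus to cecum) weighed; percent change versus vehicle mice, also expressed relative to rat GLP-2(1-33) set as 100%.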

DPP-IV = DPP-IV (Homo sapiens, UniProt P27487); experiment: Assay for resistance to dipeptidyl peptidase IV (RP-HPLC of cleavage product); settings: human, isolated human placental DPP-IV (dipeptidyl peptidase IV), pH 7.4, % Cleaved by DPP-IV, as Example 3: human placental DPP-IV, 37° C., PBS pH 7.4
Chain of DPP-IV (P27487 whole entry): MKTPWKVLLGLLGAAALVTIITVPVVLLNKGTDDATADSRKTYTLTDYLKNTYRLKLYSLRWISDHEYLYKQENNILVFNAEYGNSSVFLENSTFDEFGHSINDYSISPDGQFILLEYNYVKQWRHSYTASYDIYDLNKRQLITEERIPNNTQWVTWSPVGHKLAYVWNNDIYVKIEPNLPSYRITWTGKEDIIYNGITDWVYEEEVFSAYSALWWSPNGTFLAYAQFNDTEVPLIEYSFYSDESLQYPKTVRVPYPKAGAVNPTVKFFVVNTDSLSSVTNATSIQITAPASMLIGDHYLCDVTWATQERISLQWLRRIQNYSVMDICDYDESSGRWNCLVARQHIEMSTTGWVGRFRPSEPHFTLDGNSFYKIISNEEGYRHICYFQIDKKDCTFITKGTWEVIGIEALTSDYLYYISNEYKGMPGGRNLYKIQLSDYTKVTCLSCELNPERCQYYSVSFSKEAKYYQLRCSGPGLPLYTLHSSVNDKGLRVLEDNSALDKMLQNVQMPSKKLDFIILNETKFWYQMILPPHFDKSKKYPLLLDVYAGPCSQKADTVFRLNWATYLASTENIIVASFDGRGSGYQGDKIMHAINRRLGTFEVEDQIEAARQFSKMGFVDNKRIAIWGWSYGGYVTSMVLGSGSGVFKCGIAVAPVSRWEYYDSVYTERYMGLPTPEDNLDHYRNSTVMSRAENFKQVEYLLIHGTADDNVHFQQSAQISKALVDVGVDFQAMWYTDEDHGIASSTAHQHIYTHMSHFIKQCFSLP
Procedure: The mixture was incubated at 37° C. in a circulating water bath for 24 hours. The incubation was quenched by the addition of 50 μl of a solution of diprotin A prepared at a concentration of 4 mg/ml in PBS. Each peptide was tested in duplicate.
Each sample was analyzed by reverse-phase (RP) HPLC as follows: 90 μl of the quenched incubation mixture was injected onto a Rainin Dynamax 300 Å, C18, 5 micron, 4.6×250 millimeter column. The samples were eluted with 0.1% trifluoroacetic acid (TFA) in water modified with 0.1% acetonitrile using a linear gradient and a flow rate of 1 ml per minute. Sample components were detected at 214 nanometers (nm). The extent of cleavage was measured by relative integration of the peak corresponding to the cleavage product compared to that of the remaining undigested parent peptide.

Row | metabolised at 24 h, 0.19 mg/ml (DPP-IV) [%] | Compound | % Activity (small bowel inducing activity relative to native rat GLP-2(1-33) = 100%) (CD1 mice) [%] | % Increase in small bowel weight (CD1 mice) [%]
1 | 0 | CC[C@H](C)[C@H](NC(=O)[C@H](Cc1ccccc1)NC(=O)[C@H](CC(=O)O)NC(=O)[C@H](CCCNC(=N)N)NC(=O)[C@H](C)NC(=O)[C@H](C)NC(=O)[C@H](CC(C)C)NC(=O)[C@H](CC(N)=O)NC(=O)[C@H](CC(=O)O)NC(=O)[C@H](CC(C)C)NC(=O)[C@@H](NC(=O)[C@@H](NC(=O)[C@H](CC(N)=O)NC(=O)[C@H](CCSC)NC(=O)[C@H](CCC(=O)O)NC(=O)[C@H](CC(=O)O)NC(=O)[C@H](CO)NC(=O)[C@H](Cc1ccccc1)NC(=O)[C@H](CO)NC(=O)CNC(=O)[C@H](CC(=O)O)NC(=O)[C@@H](NC(=O)[C@@H](N)Cc1c[nH]cn1)C(C)(C)C)[C@@H](C)O)[C@@H](C)CC)C(=O)N[C@@H](CC(N)=O)C(=O)N[C@@H](Cc1c[nH]c2ccccc12)C(=O)N[C@@H](CC(C)C)C(=O)N[C@H](C(=O)N[C@@H](CCC(N)=O)C(=O)N[C@H](C(=O)N[C@@H](CCCCN)C(=O)N[C@H](C(=O)N[C@H](C(=O)N[C@@H](CC(=O)O)C(=O)O)[C@@H](C)O)[C@@H](C)CC)[C@@H](C)O)[C@@H](C)CC [[tBuGly2]hGLP-2] (H-H[Tle]DGSFSDEMNTILDNLAARDFINWLIQTKITD-OH) | 123 | 
2 | 15 | CC[C@H](C)[C@H](NC(=O)[C@H](Cc1ccccc1)NC(=O)[C@H](CC(=O)O)NC(=O)[C@H](CCCNC(=N)N)NC(=O)[C@H](C)NC(=O)[C@H](C)NC(=O)[C@H](CC(C)C)NC(=O)[C@H](CC(N)=O)NC(=O)[C@H](CC(=O)O)NC(=O)[C@H](CC(C)C)NC(=O)[C@@H](NC(=O)[C@@H](NC(=O)[C@H](CC(N)=O)NC(=O)[C@H](CCSC)NC(=O)[C@H](CCC(=O)O)NC(=O)[C@H](CC(=O)O)NC(=O)[C@H](CO)NC(=O)[C@H](Cc1ccccc1)NC(=O)[C@H](CO)NC(=O)CNC(=O)[C@H](CC(=O)O)NC(=O)[C@H](C)NC(=O)CCc1ccc(O)cc1)[C@@H](C)O)[C@@H](C)CC)C(=O)N[C@@H](CC(N)=O)C(=O)N[C@@H](Cc1c[nH]c2ccccc12)C(=O)N[C@@H](CC(C)C)C(=O)N[C@H](C(=O)N[C@@H](CCC(N)=O)C(=O)N[C@H](C(=O)N[C@@H](CCCCN)C(=O)N[C@H](C(=O)N[C@H](C(=O)N[C@@H](CC(=O)O)C(=O)O)[C@@H](C)O)[C@@H](C)CC)[C@@H](C)O)[C@@H](C)CC [[desNH2Tyr1]hGLP-2(1-33)] (Desaminotyrosyl-ADGSFSDEMNTILDNLAARDFINWLIQTKITD-OH) | 125 | 
3 | 0 | H-YGDGSFSDEMNTILDNLAARDFINWLIQTKITD-OH [[Tyr1, Gly2]hGLP-2(1-33)] | 241 | 
4 | 20 | CC[C@H](C)[C@H](NC(=O)[C@H](Cc1ccccc1)NC(=O)[C@H](CC(=O)O)NC(=O)[C@H](CCCNC(=N)N)NC(=O)[C@H](C)NC(=O)[C@H](C)NC(=O)[C@H](CC(C)C)NC(=O)[C@H](CC(N)=O)NC(=O)[C@H](CC(=O)O)NC(=O)[C@H](CC(C)C)NC(=O)[C@@H](NC(=O)[C@@H](NC(=O)[C@H](CC(N)=O)NC(=O)[C@H](CCSC)NC(=O)[C@H](CCC(=O)O)NC(=O)[C@H](CC(=O)O)NC(=O)[C@H](CO)NC(=O)[C@H](Cc1ccccc1)NC(=O)[C@H](CO)NC(=O)CNC(=O)[C@H](CC(=O)O)NC(=O)[C@@H](NC(=O)[C@@H](N)Cc1c[nH]cn1)C(C)(C)S)[C@@H](C)O)[C@@H](C)CC)C(=O)N[C@@H](CC(N)=O)C(=O)N[C@@H](Cc1c[nH]c2ccccc12)C(=O)N[C@@H](CC(C)C)C(=O)N[C@H](C(=O)N[C@@H](CCC(N)=O)C(=O)N[C@H](C(=O)N[C@@H](CCCCN)C(=O)N[C@H](C(=O)N[C@H](C(=O)N[C@@H](CC(=O)O)C(=O)O)[C@@H](C)O)[C@@H](C)CC)[C@@H](C)O)[C@@H](C)CC [[Pen2]hGLP-2(1-33)] (H-H[Pen]DGSFSDEMNTILDNLAARDFINWLIQTKITD-OH) | 58 | 
5 | 0 | CC[C@H](C)[C@H](NC(=O)[C@H](Cc1ccccc1)NC(=O)[C@H](CC(=O)O)NC(=O)[C@H](CCCNC(=N)N)NC(=O)[C@H](C)NC(=O)[C@H](C)NC(=O)[C@H](CC(C)C)NC(=O)[C@H](CC(N)=O)NC(=O)[C@H](CC(=O)O)NC(=O)[C@H](CC(C)C)NC(=O)[C@@H](NC(=O)[C@@H](NC(=O)[C@H](CC(N)=O)NC(=O)[C@H](CCSC)NC(=O)[C@H](CCC(=O)O)NC(=O)[C@H](CC(=O)O)NC(=O)[C@H](CO)NC(=O)[C@H](Cc1ccccc1)NC(=O)[C@H](CO)NC(=O)CNC(=O)[C@H](CC(=O)O)NC(=O)[C@@H](C)NC(=O)[C@@H](N)Cc1c[nH]cn1)[C@@H](C)O)[C@@H](C)CC)C(=O)N[C@@H](CC(N)=O)C(=O)N[C@@H](Cc1c[nH]c2ccccc12)C(=O)N[C@@H](CC(C)C)C(=O)N[C@H](C(=O)N[C@@H](CCC(N)=O)C(=O)N[C@H](C(=O)N[C@@H](CCCCN)C(=O)N[C@H](C(=O)N[C@H](C(=O)N[C@@H](CC(=O)O)C(=O)O)[C@@H](C)O)[C@@H](C)CC)[C@@H](C)O)[C@@H](C)CC [[D-Ala2]hGLP-2(1-33)] | 130 | 
6 | 0 | H-HQDGSFSDEMNTILDNLAARDFINWLIQTKITD-OH [[Gln2]hGLP-2(1-33)] | 100 | 
7 | 0 | H-HSDGSFSDEMNTILDNLAARDFINWLIQTKITD-OH [[Ser2]hGLP-2(1-33)] | 167 | 
8 | 49 | CC[C@H](NC(=O)[C@@H](N)Cc1c[nH]cn1)C(=O)N[C@@H](CC(=O)O)C(=O)NCC(=O)N[C@@H](CO)C(=O)N[C@@H](Cc1ccccc1)C(=O)N[C@@H](CO)C(=O)N[C@@H](CC(=O)O)C(=O)N[C@@H](CCC(=O)O)C(=O)N[C@@H](CCSC)C(=O)N[C@@H](CC(N)=O)C(=O)N[C@H](C(=O)N[C@H](C(=O)N[C@@H](CC(C)C)C(=O)N[C@@H](CC(=O)O)C(=O)N[C@@H](CC(N)=O)C(=O)N[C@@H](CC(C)C)C(=O)N[C@@H](C)C(=O)N[C@@H](C)C(=O)N[C@@H](CCCNC(=N)N)C(=O)N[C@@H](CC(=O)O)C(=O)N[C@@H](Cc1ccccc1)C(=O)N[C@H](C(=O)N[C@@H](CC(N)=O)C(=O)N[C@@H](Cc1c[nH]c2ccccc12)C(=O)N[C@@H](CC(C)C)C(=O)N[C@H](C(=O)N[C@@H](CCC(N)=O)C(=O)N[C@H](C(=O)N[C@@H](CCCCN)C(=O)N[C@H](C(=O)N[C@H](C(=O)N[C@@H](CC(=O)O)C(=O)O)[C@@H](C)O)[C@@H](C)CC)[C@@H](C)O)[C@@H](C)CC)[C@@H](C)CC)[C@@H](C)CC)[C@@H](C)O [[aAbu2]hGLP-2(1-33)] (H-H[Abu]DGSFSDEMNTILDNLAARDFINWLIQTKITD-OH) | 84 | 
9 | 60 | CC[C@H](C)[C@H](NC(=O)[C@H](Cc1ccccc1)NC(=O)[C@H](CC(=O)O)NC(=O)[C@H](CCCNC(=N)N)NC(=O)[C@H](C)NC(=O)[C@H](C)NC(=O)[C@H](CC(C)C)NC(=O)[C@H](CC(N)=O)NC(=O)[C@H](CC(=O)O)NC(=O)[C@H](CC(C)C)NC(=O)[C@@H](NC(=O)[C@@H](NC(=O)[C@H](CC(N)=O)NC(=O)[C@H](CCSC)NC(=O)[C@H](CCC(=O)O)NC(=O)[C@H](CC(=O)O)NC(=O)[C@H](CO)NC(=O)[C@H](Cc1ccccc1)NC(=O)[C@H](CO)NC(=O)CNC(=O)[C@H](CC(=O)O)NC(=O)[C@H](C)NC(=O)[C@@H](N)Cc1c[nH]cn1)[C@@H](C)O)[C@@H](C)CC)C(=O)N[C@@H](CC(N)=O)C(=O)N[C@@H](Cc1c[nH]c2ccccc12)C(=O)N[C@@H](CC(C)C)C(=O)N[C@H](C(=O)N[C@@H](CCC(N)=O)C(=O)N[C@H](C(=O)N[C@@H](CCCCN)C(=O)N[C@H](C(=O)N[C@H](C(=O)N[C@@H](CC(=O)O)C(=O)O)[C@@H](C)O)[C@@H](C)CC)[C@@H](C)O)[C@@H](C)CC [hGLP-2(1-33), reference compound] | 100 | 
10 | 54 | H-HADGSFSDEMNTILDNLAARDFINFLIQTKITD-OH [[Phe25]hGLP-2(1-33)] | 114 | 
11 | 0 | Ac-HADGSFSDEMNTILDNLATRDFINWLIQTKITD-OH [Ac-ratGLP-2(1-33)] | 44 | 
12 | 0 | H-HDDGSFSDEMNTILDNLAARDFINWLIQTKITD-OH [[Asp2]hGLP-2(1-33)] | 83 | 
13 | 0 | H-HIDGSFSDEMNTILDNLAARDFINWLIQTKITD-OH [[Ile2]hGLP-2(1-33)] | 90 | 
14 | 0 | H-HTDGSFSDEMNTILDNLAARDFINWLIQTKITD-OH [[Thr2]hGLP-2(1-33)] | 117 | 
15 | 0 | H-HGDGSFSDEMNTILDNLAARDFIAWLIQTKITD-OH [[Gly2,Ala24]hGLP-2(1-33)] | 139 | 67
16 | 0 | H-HYDGSFSDEMNTILDNLAARDFINWLIQTKITD-OH [[Tyr2]hGLP-2(1-33)] | 57 | 
17 | 0 | H-PADGSFSDEMNTILDNLAARDFINWLIQTKITD-OH [[Pro1]hGLP-2(1-33)] | 12 | 
18 | 77 | H-HADGAFADEMNTILDNLAARDFINWLIQTKITD-OH [[Ala5, Ala7]hGLP-2(1-33)] | 108 | 
19 | 50 | H-HAEGSFSDEMNTILDNLATRDFINWLIQTKITD-OH [[Glu3]ratGLP-2(1-33)] | 65 | 33
